Laboratory results as given in patent publication US8093028B2, “Engineered glycosyltransferases with expanded substrate specificity” (Wisconsin Alumni Research Foundation, priority 2007, dated 2012).
In brackets after ≈: the same amount, converted by molar mass. Read-outs that look alike come from different tables or passages of the source.

Experiments:
OleD P67T/S132F/A242V = target: T1, OleD P67T/S132F/A242V (Streptomyces antibioticus, UniProt Q53685, A242V/P67T/S132F); experiment: Rate of glucoside formation with acceptors (RP-HPLC); type: biochemical; conditions: for Rate of glucoside formation, P67T/S132F/A242V: 200 μM acceptor, 1 mM UDPG
T1 construct: made in house; host or cells: E. coli (site-directed mutant of pET28/OleD)
Description: Enzyme assays for the determination of glycosyl transfer rate to FIG. 1: 4, Table 1: 27-32 were carried out in a total volume of 500 μl 50 mM Tris-HCl (pH8.0) containing 5 mM MgCl2, 200 μM acceptor, 1 mM UDPG, and 50 μg pure enzyme. Aliquots (100 μl) were removed between 0 and 30 min, at which time product formation was still linear with respect to time, and quenched with 90 μl of an 8:1 mixture of ice-cold MeOH/HCl, and centrifuged at 14,000 rpm for 10 min. Supernatants were analyzed by analytical reverse-phase HPLC with a 250 mm×4.6 mm Gemini […] C18 column (Phenomenex, Torrance, Calif.) using a gradient of 10-90% CH3CN in 0.1% trifluoroacetic acid (TFA)/H2O in 20 min at 1 ml/min, with detection at 254 nm. HPLC peak areas were integrated, and the product concentration calculated as a percent of the total peak area. Product identity was confirmed by co-elution with a commercial standard when available and, in all cases, by LC-MS (FIG. 8). […]
Enzyme reactions were carried out in a total volume of 500 μl 50 mM Tris-HCl (pH8.0) containing 5 mM MgCl2, 200 μM acceptor, 1 mM UDPG, and 50 μg pure enzyme. Aliquots (100 μl) were removed between 0 and 30 min, and quenched with 90 μl of an 8:1 mixture of ice-cold MeOH/HCl for activity towards FIG. 1: 4, Table 1: 27-32, or with 90 μl of ice-cold MeOH for activity towards FIG. 1: 1, and the samples centrifuged at 14,000 rpm for 10 min.
For determination of activity to FIG. 1: 4, Table 1: 27-32, supernatants were analyzed by analytical reverse-phase HPLC with a Gemini 5μ C18 column (Phenomenex) using a gradient of 10-90% CH3CN in 0.1% trifluoroacetic acid (TFA)/H2O in 20 min, with detection at 254 nm. HPLC peak areas were integrated, and the product concentration calculated as a percent of the total peak area. All products were characterized by LC-MS. Mass spectra were obtained using electrospray ionization on an Agilent 1100 HPLC-MSD SL quadrapole mass spectrometer connected to a UV/Vis diode array detector. For LC-MS analysis, quenched reaction mixtures (see below) were analyzed by analytical reverse-phase HPLC with a 250 mm×4.6 mm Gemini 5μ C18 column (Phenomenex, Torrance, Calif.) using a gradient of 10-90% CH3CN in 0.1% formic acid/H2O in 20 min at 1 ml/min, with detection at 254 nm.
For determination of activity toward FIG. 1: 1, centrifuged reaction mixtures were analyzed by analytical reverse-phase HPLC with a Gemini 5μ C18 column (Phenomenex) using a gradient of 0-90% CH3CN in 50 mM NH3COOH over 30 min at 1 ml/min. Compounds FIG. 1: 1 and 3 were detected by evaporative light scattering detection (ELSD) using a drift tube temperature of 105° C. and a nitrogen flow of 2.5 ml/min. All products were characterized by APCI LC-MS on an Agilent 1100 Series LC/MSD quadrapole mass spectrometer connected to a UV detector. Quenched reaction mixtures were analyzed by reverse-phase HPLC with a 10 mm×4.6 mm Zorbax Extend 5μ C18 Analytical Guard Column (Agilent Technologies) using an isocratic gradient of 80% MeOH in 2 min at 1 ml/min, with detection at 254 nm.

[1] = Solubility limit of acceptors; type: physicochemical
OleD A242V = target: T2, OleD A242V (Streptomyces antibioticus, UniProt Q53685, A242V/P55A/R82V/R83E/T84P); experiment: Specific activity with novobiocic acid or 4-Me-umb as acceptor and UDP-Glc; type: biochemical; conditions: UDP-Glc donor
T2 construct: made in house; host or cells: E. coli BL21(DE3)pLysS (error-prone PCR clone in pET28a)
Description: (§1) Determination of specific activity with 1 or 4 as acceptor. Enzyme reactions were carried out in a total volume of 100 μl/50 mM Tris-HCl (pH8.0) containing 5 mM MgCl2, 200 μM (FIG. 9: 1) or (FIG. 9: 4), 5 mM (FIG. 12: 5), and typically 10-50 μg pure enzyme. At a suitable time interval during which rate of product formation was linear with time (typically 2-20 min), reactions were quenched with 100 μl MeOH, and the samples centrifuged at 10,000 g for 10 min. Supernatants were analyzed by analytical reverse-phase HPLC with a Gemini 5μ C18 column (Phenomenex) using a gradient of 10-90% CH3CN in 0.1% trifluoroacetic acid (TFA)/H2O in 20 min, with detection at 254 nm. […] The identity of (FIG. 9: 7) was confirmed by LC-MS and NMR while the […] of glucoside (FIG. 9: 6) was confirmed by co-elution with a commercial standard and LC-MS analysis. HPLC peak areas were integrated, and the product concentrations calculated as a percent of the total peak area. Specific activity was expressed as nmols product formed/min/mg protein.

OleD G340W = target: T3, OleD G340W (Streptomyces antibioticus, UniProt Q53685, G340W/P55A/R82V/R83E/T84P); experiment: as above; type: biochemical; conditions: UDP-Glc donor
T3 construct: made in house; host or cells: E. coli (site-directed mutant of pET28/OleD)
Description: as §1

OleD I112T = target: T4, OleD I112T (Streptomyces antibioticus, UniProt Q53685, I112T/P55A/R82V/R83E/T84P); experiment: as above; type: biochemical; conditions: UDP-Glc donor
T4 construct: made in house; host or cells: E. coli (site-directed mutant of pET28/OleD)
Description: as §1

OleD P67T = target: T5, OleD P67T (Streptomyces antibioticus, UniProt Q53685, P55A/P67T/R82V/R83E/T84P); experiment: as above; type: biochemical; conditions: UDP-Glc donor
T5 construct: made in house; host or cells: E. coli (site-directed mutant of pET28/OleD)
Description: as §1

OleD S132F = target: T6, OleD S132F (Streptomyces antibioticus, UniProt Q53685, P55A/R82V/R83E/S132F/T84P); experiment: as above; type: biochemical; conditions: UDP-Glc donor
T6 construct: made in house; host or cells: E. coli (site-directed mutant of pET28/OleD)
Description: as §1

Structure (SMILES) | Rate of glucoside formation, P67T/S132F/A242V (OleD P67T/S132F/A242V) | specific activity, fold higher than WT OleD (OleD P67T/S132F/A242V; 4 and 2 as acceptor/donor) | Fold-improvement compared to WT OleD (OleD P67T/S132F/A242V; rate of P67T/S132F/A242V versus WT, UDPG donor) | solubility ([1]; aqueous with cosolvent or surfactant or cyclodextrin, in water/DMSO, read-out: solubility limit) | solubility ([1]; enzyme assay buffer (50 mM Tris-HCl with 5 mM MgCl2), pH 8, limited solubility in assay, read-out: solubility) | improvement in specific activity, A242V compared to WT OleD (OleD A242V) | specific activity, G340W compared to WT OleD (OleD G340W) | specific activity, I112T compared to WT OleD (OleD I112T) | improvement in specific activity, P67T compared to WT OleD (OleD P67T) | improvement in specific activity, S132F compared to WT OleD (OleD S132F) | solubility ([1]; in kinetic assay, read-out: solubility limit)
Cc1cc(=O)oc2cc(O)ccc12 [4-Me-umb (4), 7-hydroxy-4-methylcoumarin] | 84 mmols/product formed/min/μg enzyme × 10^3 | ~30 fold | 33 fold | 10 mM (≈ 1760 µg/mL) | < 4 mM | ~2.3 fold | approximately 0.5 fold | approximately 0.5 fold | approximately 7 fold | ~2.6 fold | –
CC(C)=CCc1cc(C(=O)Nc2c(O)c3ccc(O)c(C)c3oc2=O)ccc1O [novobiocic acid (29), novobiocic acid] | 1.14 mmols/product formed/min/μg enzyme × 10^3 | – | – | – | – | two-three fold | non-beneficial | 7.4 fold | two-three fold | two-three fold | 5 mM (≈ 1980 µg/mL)
